The text below walks through data of ChEMBL document CHEMBL1158303, “Macrocarpals H, I, and J from the Leaves of Eucalyptus globulus” (1996).

≈ marks a conversion by molar mass, not a printed value.

The subject of test [1] is Actinomyces viscosus. The test is described as follows: Antibacterial activity against Actinomyces viscosus 15987 by broth dilution method. Type of test: functional.
The subject of test [2] is Porphyromonas gingivalis. The experiment in a line: Antibacterial activity against Porphyromonas gingivalis 33277 by broth dilution method. Type of test: functional.
In test [3] the test system is Capnocytophaga ochracea. The experiment in a line: Antibacterial activity against Capnocytophaga ochracea 33596 by broth dilution method. In kind it is functional.
Test [4] has as its system Streptococcus sobrinus. The experiment in a line: Antibacterial activity against Streptococcus sobrinus B13 by broth dilution method. In kind it is functional.
The test system of test [5] is Fusobacterium nucleatum. The experiment in a line: Antibacterial activity against Fusobacterium nucleatum 25586 by broth dilution method. In kind it is functional.
Test [6] concerns Streptococcus mutans. The test is described as follows: Antibacterial activity against Streptococcus mutans LA7 by broth dilution method. In kind it is functional.
Test [7] has as its system Streptococcus sobrinus. The experiment in a line: Antibacterial activity against Streptococcus sobrinus 6715 by broth dilution method. In kind it is functional.
Test [8] has as its system Streptococcus mutans. The experiment in a line: Antibacterial activity against Streptococcus mutans Ingbritt by broth dilution method. In kind it is functional.
The subject of test [9] is Prevotella intermedia. The test is described as follows: Antibacterial activity against Prevotella intermedia 25611 by broth dilution method. Type of test: functional.
The subject of test [10] is Prevotella melaninogenica. The experiment in a line: Antibacterial activity against Prevotella melaninogenica 25845 by broth dilution method. In kind it is functional.
For test [11], the system named is Streptococcus sobrinus. The test is described as follows: Inhibition of Streptococcus sobrinus glucosyltransferase assessed as blockade of adherent water insoluble glucan synthesis at 10 ug/mL.
In test [12] the test system is Streptococcus sobrinus. The experiment in a line: Inhibition of Streptococcus sobrinus glucosyltransferase assessed as blockade of adherent water insoluble glucan synthesis at 1 ug/mL.
For test [13], the system named is Streptococcus sobrinus. The test is described as follows: Inhibition of Streptococcus sobrinus glucosyltransferase assessed as blockade of adherent water insoluble glucan synthesis at 100 ug/mL.

As to `Cc1ccc(C(C)C)c(O)c1` [THYMOL], the minimal inhibitory concentration (MIC) in test [1] is 200 µg/mL (≈ 1330 µM); in test [2], 200 µg/mL (≈ 1330 µM); in test [3], 100 µg/mL (≈ 666 µM); in test [4], 400 µg/mL (≈ 2660 µM); in test [5] it was 50 µg/mL (≈ 333 µM); in test [6], 400 µg/mL (≈ 2660 µM). Moreover, the minimal inhibitory concentration (MIC) turned out to be 200 µg/mL (≈ 1330 µM) in test [7], 400 µg/mL (≈ 2660 µM) in test [8], 200 µg/mL (≈ 1330 µM) in test [9] and 200 µg/mL (≈ 1330 µM) in [10].

As for `CC(C)C[C@H](c1c(O)c(C=O)c(O)c(C=O)c1O)[C@@]1(C)CC[C@@H]2[C@@H]1[C@H]1[C@@H](CC[C@@]2(C)O)C1(C)C` [MACROCARPAL B], the minimum inhibitory concentration (MIC) in test [1] was found to be 0.39 µg/mL (≈ 0.825 µM); in test [2] it was 0.78 µg/mL (≈ 1.65 µM); in test [3], 1.56 µg/mL (≈ 3.3 µM); in test [4] it was 3.13 µg/mL (≈ 6.62 µM); in test [5], 3.13 µg/mL (≈ 6.62 µM); in test [6], 1.56 µg/mL (≈ 3.3 µM). The minimal inhibitory concentration (MIC) in test [7] came to 3.13 µg/mL (≈ 6.62 µM); in test [8], 3.13 µg/mL (≈ 6.62 µM); in test [9] it was 1.56 µg/mL (≈ 3.3 µM); in test [10], 3.13 µg/mL (≈ 6.62 µM). The figures for the inhibition in test [11], in test [12] and in test [13] were 67.6%, 10.1% and 97.1%, respectively.

Turning to `CC(C)CC(c1c(O)c(C=O)c(O)c(C=O)c1O)[C@@H]1CC[C@@](C)(O)[C@@H]2C[C@H](C(C)(C)O)CC[C@]21C` (some centres not stated) [MACROCARPAL J], the MIC in test [1] came out at 12.5 µg/mL (≈ 25.5 µM); in test [2] it was 6.25 µg/mL (≈ 12.7 µM); in test [3], 12.5 µg/mL (≈ 25.5 µM); in test [4], 100 µg/mL (≈ 204 µM); in [5], 25 µg/mL (≈ 51 µM); in test [6], 25 µg/mL (≈ 51 µM). In addition, the MIC in test [7] is 100 µg/mL (≈ 204 µM); in [8] it was 50 µg/mL (≈ 102 µM); in [9] it was 12.5 µg/mL (≈ 25.5 µM); in [10], 12.5 µg/mL (≈ 25.5 µM). The inhibition was found to be 29.7% in test [11], 6.9% in test [12] and 77.1% in test [13].

Take `O=C(O[C@@H]1Cc2c(O)cc(O)cc2O[C@@H]1c1cc(O)c(O)c(O)c1)c1cc(O)c(O)c(O)c1`: the inhibition in [11] was 10.5%; in test [12], 3%; in test [13], 26.5%.

Consider `C=C1CC[C@@H]2[C@H]([C@H]3[C@H]1CC[C@]3(C)[C@@H](CC(C)C)c1c(O)c(C=O)c(O)c(C=O)c1O)C2(C)C` [MACROCARPAL C], for which the MIC in test [1] was found to be 0.2 µg/mL (≈ 0.44 µM); in test [2], 0.2 µg/mL (≈ 0.44 µM); in test [3], 0.39 µg/mL (≈ 0.858 µM); in test [4] it was 1.56 µg/mL (≈ 3.43 µM); in test [5], 0.78 µg/mL (≈ 1.72 µM); in [6], 0.39 µg/mL (≈ 0.858 µM). The minimal inhibitory concentration (MIC) in [7] was determined as 1.56 µg/mL (≈ 3.43 µM); in [8], 0.39 µg/mL (≈ 0.858 µM); in [9], 0.39 µg/mL (≈ 0.858 µM); in [10], 1.56 µg/mL (≈ 3.43 µM). Also, the inhibition in test [11] came to 92.6%; in test [12] it was 18.9%; in test [13], 98.9%.

Consider `CC(C)C[C@H](c1c(O)c(C=O)c(O)c(C=O)c1O)[C@@H]1CC[C@@](C)(O)[C@@H]2C[C@H](C(C)(C)O)CC[C@]21C` [MACROCARPAL I], for which the minimum inhibitory concentration (MIC) in test [1] is 12.5 µg/mL (≈ 25.5 µM); in test [2], 6.25 µg/mL (≈ 12.7 µM); in test [3] it was 12.5 µg/mL (≈ 25.5 µM); in [4] it was 100 µg/mL (≈ 204 µM); in test [5], 25 µg/mL (≈ 51 µM); in test [6] it was 25 µg/mL (≈ 51 µM). In addition, the minimal inhibitory concentration (MIC) was found to be 100 µg/mL (≈ 204 µM) in test [7], 50 µg/mL (≈ 102 µM) in test [8], 12.5 µg/mL (≈ 25.5 µM) in test [9] and 12.5 µg/mL (≈ 25.5 µM) in [10]. Moreover, the values for the inhibition in test [11], in test [12] and in test [13] were 26.3%, 0% and 86.9%, respectively.

Turning to `CC(C)C[C@@H](c1c(O)c(C=O)c(O)c(C=O)c1O)[C@@]1(C)CC[C@H]2C1=C[C@H](C(C)(C)O)CC[C@H]2C` [MACROCARPAL D], the minimal inhibitory concentration (MIC) in [1] turned out to be 0.39 µg/mL (≈ 0.825 µM); in test [2], 0.39 µg/mL (≈ 0.825 µM); in test [3], 1.56 µg/mL (≈ 3.3 µM); in test [4], 0.78 µg/mL (≈ 1.65 µM); in test [5], 6.25 µg/mL (≈ 13.2 µM); in test [6] it was 0.78 µg/mL (≈ 1.65 µM). Further, the MIC in [7] was 3.13 µg/mL (≈ 6.62 µM); in test [8] it was 1.56 µg/mL (≈ 3.3 µM); in test [9], 0.39 µg/mL (≈ 0.825 µM); in [10] it was 1.56 µg/mL (≈ 3.3 µM). The results for the inhibition in test [11], in test [12] and in test [13] were 78.2%, 17.3% and 99%, respectively.

On to `C=C1CC[C@@H]([C@H](CC(C)C)c2c(O)c(C=O)c(O)c(C=O)c2O)[C@]2(C)CC[C@@H](C(C)(C)O)C[C@@H]12` [MACROCARPAL H], for which the minimal inhibitory concentration (MIC) in [1] was determined as 0.39 µg/mL (≈ 0.825 µM); in test [2], 0.78 µg/mL (≈ 1.65 µM); in [3] it was 1.56 µg/mL (≈ 3.3 µM); in [4], 3.13 µg/mL (≈ 6.62 µM); in test [5], 6.25 µg/mL (≈ 13.2 µM); in test [6], 1.56 µg/mL (≈ 3.3 µM). For the same molecule, the MIC worked out at 3.13 µg/mL (≈ 6.62 µM) in [7], 3.13 µg/mL (≈ 6.62 µM) in [8], 0.78 µg/mL (≈ 1.65 µM) in test [9] and 3.13 µg/mL (≈ 6.62 µM) in test [10]. The values for the inhibition in [11], in [12] and in test [13] were 64%, 2.9% and 97.6%, respectively.

In the case of `CC(=O)CC[C@@H]1[C@H]([C@H]2C(=O)CC[C@]2(C)C(CC(C)C)c2c(O)c(C=O)c(O)c(C=O)c2O)C1(C)C` (some centres not stated) [EUCALYPTONE], the minimal inhibitory concentration (MIC) amounted to 3.13 µg/mL (≈ 6.43 µM) in test [1]; 1.56 µg/mL (≈ 3.21 µM) in test [2]; 3.13 µg/mL (≈ 6.43 µM) in test [3]; 25 µg/mL (≈ 51.4 µM) in test [4]; 6.25 µg/mL (≈ 12.8 µM) in test [5]; 12.5 µg/mL (≈ 25.7 µM) in test [6]. The minimal inhibitory concentration (MIC) in [7] was 25 µg/mL (≈ 51.4 µM); in [8], 12.5 µg/mL (≈ 25.7 µM); in [9], 0.78 µg/mL (≈ 1.6 µM); in test [10], 3.13 µg/mL (≈ 6.43 µM). Further, the inhibition in test [11] was determined as 44%; in [12] it was 4.4%; in test [13], 97.6%.

For `CC(C)C[C@@H](c1c(O)c(C=O)c(O)c(C=O)c1O)[C@@]1(C)CC[C@@H]2[C@@H]1[C@H]1[C@@H](CC[C@@]2(C)O)C1(C)C` [MACROCARPAL A], the MIC was found to be 0.39 µg/mL (≈ 0.825 µM) in test [1]; 0.39 µg/mL (≈ 0.825 µM) in [2]; 0.78 µg/mL (≈ 1.65 µM) in test [3]; 1.56 µg/mL (≈ 3.3 µM) in test [4]; 6.25 µg/mL (≈ 13.2 µM) in test [5]; 0.78 µg/mL (≈ 1.65 µM) in test [6]. Also, the minimal inhibitory concentration (MIC) stood at 1.56 µg/mL (≈ 3.3 µM) in test [7], 0.78 µg/mL (≈ 1.65 µM) in test [8], 0.39 µg/mL (≈ 0.825 µM) in test [9] and 0.78 µg/mL (≈ 1.65 µM) in test [10]. Besides, the values for the inhibition in [11], in test [12] and in test [13] were 75.4%, 9.7% and 97.1%, respectively.
